Assay results published in patent US7427469B2, “Method of treating cytomegalovirus with DC-SIGN blockers” (priority 2002, dated 2008).

Assays:
[1] = test system: CMV; test: CMV trans-infection assay: virus-pulsed DC-SIGN+ cells co-cultured with MRC-5 cells; format: cell-based, Human Cytomegalovirus; conditions: MD-DC, DC-SIGN+ THP-1 or DC-SIGN+ HeLa cells pre-incubated before pulse with CMV
Experimental: For trans-infection experiments, cells were incubated with viral suspensions (CMV, VZV or HSV-1, MOI=1) for 2 hr, at 37° C. Thereafter, unbound viral particles were removed by extensive washes and cells were co-cultured with sub-confluent MRC-5 or U373 MG cell monolayers. After 24 to 72 hr, infected MRC-5 or U373-MG cells were fixed, permeabilized and stained with specific mAbs directed against IEA- or EA-CMV (mAbs E13 and 2A2, respectively), VZV (mAb 2013) or HSV (mAb CHA-437) (Argen Biosoft, Varilhes, France). When indicated MD-DC or THP-1 (parental or DC-SIGN^+) cells were incubated with EGTA (5 mM), mannan or anti-DC-SIGN (1B10.2.6 mAb) for 30 minutes at 4° C. prior challenge with infectious preparations. Infection by ADGFP strain was assessed by counting GFP-expressing cells at day 3. For long term infectivity experiments DC-SIGN^+ or parental THP-1 cells were incubated with ADGFP (MOI=1) for 4 hr at 37° C. After extensive washes, infected cells were incubated at 37° C. and an aliquot of these cells was added to a sub-confluent MRC-5 cell culture every 2 days during the assay.
MD-DC, THP-1 or HeLa expressing DC-SIGN were incubated with a mutant CMV strain encoding a GFP (ADGFP) (Borst et al., 2001). […]
The capacity of DC-SIGN to enhance infectiveness of CMV was assessed. […]

[2] = molecular target: T1, DC-SIGNR (Homo sapiens, UniProt Q9H2X3); format: binding; conditions: data not shown
T1 construct: expressed in transfected cells; host or cells: HEK 293T, transient transfection; cDNA a gift from Dr R. W. Doms
T1 sequence (Q9H2X3 whole entry): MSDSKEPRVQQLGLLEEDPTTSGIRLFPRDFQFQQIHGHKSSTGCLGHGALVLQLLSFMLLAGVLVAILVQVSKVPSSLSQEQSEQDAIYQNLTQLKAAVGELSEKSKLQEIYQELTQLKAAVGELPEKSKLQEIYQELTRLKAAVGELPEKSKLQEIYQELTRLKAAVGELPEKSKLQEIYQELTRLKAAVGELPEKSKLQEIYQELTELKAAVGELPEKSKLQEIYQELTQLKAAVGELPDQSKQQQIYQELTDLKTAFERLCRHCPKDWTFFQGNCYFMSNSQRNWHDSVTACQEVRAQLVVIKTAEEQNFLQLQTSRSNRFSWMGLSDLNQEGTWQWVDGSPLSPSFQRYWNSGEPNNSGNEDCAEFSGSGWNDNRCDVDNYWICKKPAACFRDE

[3] = molecular target: T2, DC-SIGN (Homo sapiens, UniProt Q9NNX6); format: binding; set-up: expressed in transfected cells; conditions: data not shown
T2 sequence (Q9NNX6 1-404): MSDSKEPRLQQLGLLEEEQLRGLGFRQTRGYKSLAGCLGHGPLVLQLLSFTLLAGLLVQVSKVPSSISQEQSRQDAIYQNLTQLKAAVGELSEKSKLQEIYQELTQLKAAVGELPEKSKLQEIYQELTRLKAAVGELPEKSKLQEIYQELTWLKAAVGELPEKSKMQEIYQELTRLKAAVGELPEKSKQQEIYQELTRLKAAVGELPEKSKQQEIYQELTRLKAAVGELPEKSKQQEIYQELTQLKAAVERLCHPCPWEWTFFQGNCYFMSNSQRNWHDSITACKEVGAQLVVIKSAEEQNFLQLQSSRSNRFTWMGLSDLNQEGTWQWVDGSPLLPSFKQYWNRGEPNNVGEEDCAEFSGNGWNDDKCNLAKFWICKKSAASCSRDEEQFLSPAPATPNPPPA

[4] = molecular target: T2, DC-SIGN; test: Binding of CMV virions to DC-SIGN-expressing cells (flow cytometry, anti-CMV gB mAb); format: cell-based; set-up: expressed in transfected cells; host or cells: THP-1 (gift of Dr. D. R. Littman; Kwon et al., 2002); conditions: pre-incubation of cells with the substance
Experimental: The capacity of CMV to bind DC-SIGN was investigated. Parental and DC-SIGN^+ THP-1 cells, or immature monocyte-derived DC (MD-DC) were incubated on ice with increasing concentrations of CMV and the presence of cell-bound virions was quantified by flow cytometry using a mAb directed against the CMV gB.

[5] = molecular target: T2, DC-SIGN; test: HIV-1 gp120 binding competition assay on DC-SIGN+ THP-1 cells; set-up: expressed in transfected cells; host or cells: THP-1 (gift of Dr. D. R. Littman; Kwon et al., 2002); conditions: DC-SIGN+ THP-1 cells pre-treated with competitors (20 μg/ml)
Experimental: DC-SIGN^+ THP-1 cells were washed two times, resuspended in ice-cold binding buffer (1 mM CaCl2, 2 mM MgCl2 and 0.1% Bovine Serum Albumin in PBS) at 10^6 cells/mL and pre-treated or not for 15 minutes with competitors (20 μg/ml). Thereafter, recombinant biotinylated CXCR4-tropic (MN isolate) HIV-1 gp120 (2 μg/ml; Immunodiagnostics Inc., Woburg, Mass.) was added for 30 minutes at 4° C.
In this assay we pre-incubated DC-SIGN^+ THP-1 cells with purified HIV-1 gp120, CMV gB, HSV-1 gB, VZV gB, HSV-1 gD or VZV gE. Following exposure to each single envelope glycoprotein, cells were incubated with biotinylated HIV-1 gp120, which binding to DC-SIGN^+ THP-1 cells was evidenced by immunostaining and FACS analysis.

Compound | Trans-infection of MRC-5 cells / transmission of CMV from DC-SIGN+ cells to MRC-5 cells [1] | Binding of HIV-1 gp120 and CMV gB to HEK 293T cells expressing DC-SIGNR [2] | Binding of HIV-1 gp120 and CMV gB to HEK 293T cells expressing DC-SIGN [3] | CMV virion attachment to cells [4] | Binding of biotinylated HIV-1 gp120 on DC-SIGN (competition) [5]
O=C(O)CN(CCOCCOCCN(CC(=O)O)CC(=O)O)CC(=O)O [EGTA] | prevented | blocked | blocked | – | –
mannan | prevented | – | – | Abrogation | competitive effect
